Literature values as cited in patent EP1680106B1, “COMBINATION TREATMENT OF OBESITY INVOLVING 4,5-DIHYDRO-1H-PYRAZOLE DERIVATIVES HAVING CB1-ANTAGONISTIC ACTIVITY AND LIPASE INHIBITORS” (Solvay Pharmaceuticals GmbH, priority 2003, dated 2005).

Key:
[1] = atypical antipsychotics, follow-up studies
[2] = healthy male volunteers, 5 days with meals; ATL-962 50 mg to 300 mg, orlistat 120 mg tid; placebo 1.4 (+/-1.0)
[3] = test system: carragheenin-induced swelling; settings: mice

Compound	weight gain with long-term treatment [1]	other results
Cc1nc2n(c(=O)c1CCN1CCC(c3noc4cc(F)ccc34)CC1)CCCC2 [Risperidone]	modest weight changes that are not dose related	–
CN1CCN(C2=Nc3cc(Cl)ccc3Nc3ccccc32)CC1 [clozapine]	largest weight gains	–
Cc1cc2c(s1)Nc1ccccc1N=C2N1CCN(C)CC1 [olanzapine]	largest weight gains	–
OCCOCCN1CCN(C2=Nc3ccccc3Sc3ccccc32)CC1 [quetiapine]	smallest	–
CCCCCCCCCCC[C@@H](C[C@@H]1OC(=O)[C@H]1CCCCCC)OC(=O)[C@H](CC(C)C)NC=O [tetrahydrolipstatin, (2S,3S,5S)-5-((S)-2-4-methylvaleryloxy)-2-hexyl-3-hydroxy-hexadecanoic acid lactone]	–	average fat excreted [2]: 5.6 (+/-3.8) g/day
O=C1Cc2cc(CCN3CCN(c4nsc5ccccc45)CC3)c(Cl)cc2N1 [ziprasidone]	smallest	–
Ebelactone B	–	carragheenin-induced swelling [3]: reduces carragheenin-induced swelling
